What was measured:
[1] = test system: warm-blooded animals; details: prior-art compounds; cited from earlier work
[2] = test system: two-spotted spider mite (Tetranychus urticae); experiment: Tetranychus test (resistant); assay type: in vivo; details: 48 h, after 2 days, read-out: Degree of destruction in % after 2 days; for mortality at 0.01 % strength: 0.01 % active compound concentration; for mortality at 0.1 % strength: 0.1 % active compound concentration
Experimental: Solvent: 3 parts by weight of acetone
Emulsifier: 1 part by weight of alkylaryl polyglycol ether
To produce a suitable preparation of active compound, 1 part by weight of the active compound was mixed with the stated amount of solvent and the stated amount of emulsifier and the concentrate was diluted with water to the desired concentration.
These bean plants were heavily infested with the two-spotted spider mite (Tetranychus urticae) in all stages of development.
After the specified periods of time, the effectiveness of the preparation of active compounds was determined by counting the dead mites. The degree of destruction thus obtained is expressed as a percentage: 100% means that all the spider mites were killed, whereas 0% means that none of the spider mites were killed.

[3] = Toxicity test (peroral), albino rat; details: in vivo, po, evaluation after 7 days, read-out: LD50 values (in mg/kg of body weight)
Experimental: Test animal: Albino rat (Rattus norvegicus)
To produce a suitable preparation of active compound, 3 parts by weight of active compound were mixed with 2.8 parts by weight of highly dispersible silica and 4.2 parts by weight of talc. Suspensions which contained, in 1 ml of liquid, the amount of active compound to be applied per 100 g of animal weight, were prepared from the above active-compound concentrate, with a little added powdered vegetable gum, by grinding with water. Dosing was effected volumetrically after weighing the test animals. A steel, knob-ended probe was used for oral administration. The evaluation was carried out in each case after the end of the above-mentioned time interval, calculated from the administration of the active compound.
The LD50 values (dose of active compound at which 50% of the treated animals were killed) were determined in the usual manner from the mortality figures of the doses, which were varied in geometrical progression.

[4] = test system: fly larvae (Lucilia cuprina res.); experiment: Test with parasitic fly larvae; assay type: in vivo; details: after 24 hours, read-out: Degree of destruction in %
Experimental: Solvent: 35 parts by weight of ethylene polyglycol monomethyl ether
Emulsifier: 35 parts by weight of nonylphenol polyglycol ether.
To produce a suitable preparation of active compound, 30 parts by weight of the active substance in question were mixed with the stated amount of solvent which contained the above-mentioned proportion of emulsifier and the concentrate thus obtained was diluted with water to the desired concentration.
About 20 fly larvae (Lucilia cuprina) were introduced into a test tube which contained approximately 2 ml of horse muscle. 0.5 ml of the preparation of active compound was applied to this horse meat. After 24 hours, the degree of destruction was determined in %. 100% means that all the larvae had been killed and 0% means that no larvae had been killed.

[5] = test system: caterpillars of the diamond-back moth (Plutella maculipennis); experiment: Plutella Test; assay type: in vivo; details: 72 h, after 3 days, read-out: Degree of destruction in % after 3 days; for mortality at 0.004 % strength: 0.004 % active compound; for mortality at 0.02 % strength: 0.02 % active compound; for mortality at 0.1 % strength: 0.1 % active compound; for mortality at 0.0008 % strength: 0.0008 % active compound
Experimental: (§1) Solvent: 3 parts by weight Acetone
(§2) Emulsifier: 1 part by weight Alkylaryl polyglycol ether
(§3) To produce a suitable preparation of active compound, 1 part by weight of the active compound is mixed with the stated amount of solvent and the stated amount of emulsifier and the concentrate is diluted with water to the desired concentration.
Cabbage leaves (Brassica oleracea) are sprayed with the preparation of the active compound until dew moist and are then infested with caterpillars of the diamond-back moth (Plutella maculipennis).
After the specified periods of time, the degree of destruction is determined as a percentage: 100 % means that all the caterpillars are killed whereas 0 % means that none of the caterpillars are killed.

[6] = test system: larvae of mustard beetles (Phaedon cochleariae); experiment: Phaedon-Larvae-Test; assay type: in vivo; details: in Brassica, 72 h, after 3 days, read-out: Degree of destruction in % after 3 days; for mortality at 0.004 % strength: 0.004 % active compound; for mortality at 0.02 % strength: 0.02 % active compound; for mortality at 0.1 % strength: 0.1 % active compound
Experimental: as §1, §2
To produce a suitable preparation of the particular active compound, 1 part by weight of such active compound is mixed with the stated amount of solvent and the stated amount of emulsifier, and the resulting concentrate is diluted with water to the desired final concentration.
Cabbage leaves (Brassica oleracea) are sprayed with the preparation of the given active compound until dripping wet and then infested with the larvae of mustard beetles (Phaedon cochleariae).
After specified periods of time, the degree of destruction is determined as a percentage: 100 % means that all the beetle larvae are killed, 0 % means that none of the beetle larvae are killed. The active compounds, the concentrations used, the evaluation time and the results obtained can be seen from the following Table 5: […]

[7] = test system: peach aphids (Myzus persicae); experiment: Myzus Test (contact action); assay type: in vivo; details: 24 h, after 1 day, read-out: Degree of destruction in % after 1 day; for mortality at 0.02 % strength: 0.02 % active compound; for mortality at 0.1 % strength: 0.1 % active compound
Experimental: as §1, §2, §3
Cabbage plants (Brassica oleracea) which have been heavily infested with peach aphids (Myzus persicae) are sprayed with the preparation of the active compound until dripping wet.
After the specified periods to time, the degree of destruction is determined as a percentage: 100 % means that all the aphids are killed whereas 0 % means that none of the aphids are killed.

CCOP(=S)(OCC)Oc1ccc(S(=O)(=O)CCl)cc1 [Compound A, O,O-diethyl-O-(4-chloromethylsulfonylphenyl)-thionophosphoric acid ester]
toxicity towards warm-blooded animals [1]: high toxicity

CCOP(=S)(OCC)Oc1ccc(S(=O)(=O)CCl)cc1 [drawing 6, reference compound]
mortality at 0.01 % strength [2]: 0% | mortality at 0.1 % strength [2]: 50%

CCCSP(=S)(OCC)Oc1ccc(S(=O)(=O)CCl)cc1Cl (stereo not drawn) [drawing 7]
mortality at 0.01 % strength [2]: 60% | mortality at 0.1 % strength [2]: 100%

CCOP(=S)(OCC)Oc1ccc(S(=O)(=O)CCl)cc1 [drawing 8, reference compound]
LD50 at 168 h [3]: 2.5 to 5 mg/kg

CCCSP(=S)(OCC)Oc1ccc(S(C)(=O)=O)cc1Cl (stereo not drawn) [drawing 9]
LD50 at 168 h [3]: 50 to 100 mg/kg

CCCSP(=S)(OCC)Oc1ccc(S(C)(=O)=O)cc1Br (stereo not drawn) [drawing 10]
LD50 at 168 h [3]: 50 to 100 mg/kg

CCCSP(=S)(OCC)Oc1ccc(S(=O)(=O)CCl)cc1 (stereo not drawn) [drawing 11]
LD50 at 168 h [3]: ~250 mg/kg

CCCSP(=S)(OCC)Oc1ccc(S(=O)(=O)CCl)cc1Cl (stereo not drawn) [drawing 12]
LD50 at 168 h [3]: 100 to 250 mg/kg

CCCSP(=S)(OCC)Oc1ccc(SC(F)C(=O)OCC)cc1 (stereo not drawn) [drawing 13]
LD50 at 168 h [3]: 100 to 250 mg/kg

CCCSP(=S)(OCC)Oc1ccc(S(=O)(=O)CCl)cc1 (stereo not drawn) [drawing 14]
mortality at 1 ppm [4]: 0% | mortality at 10 ppm [4]: 100% | mortality at 30 ppm [4]: 100% | mortality at 100 ppm [4]: 100%

CCCSP(=S)(OCC)Oc1ccc(S(C)(=O)=O)cc1Cl (stereo not drawn) [drawing 15]
mortality at 1 ppm [4]: 0% | mortality at 3 ppm ([4]; 3 ppm): 100% | mortality at 10 ppm [4]: 100% | mortality at 30 ppm [4]: 100% | mortality at 100 ppm [4]: 100%

CCCSP(=S)(OCC)Oc1ccc(SC(F)C(=O)OCC)cc1 (stereo not drawn) [drawing 16]
mortality at 10 ppm [4]: 0% | mortality at 30 ppm [4]: > 50% | mortality at 100 ppm [4]: 100%

CCOP(=S)(Oc1ccc(S(C)(=O)=O)cc1)SC (stereo not drawn) [drawing 17, reference compound]
mortality at 0.004 % strength [5]: 0% | mortality at 0.02 % strength [5]: 85% | mortality at 0.1 % strength [5]: 100%

CCCSP(=S)(OCC)Oc1ccc(S(C)(=O)=O)cc1 (stereo not drawn) [drawing 18]
mortality at 0.004 % strength [5]: 100% | mortality at 0.02 % strength [5]: 100% | mortality at 0.1 % strength [5]: 100%

CCCSP(=S)(OCC)Oc1ccc(S(=O)(=O)CCl)cc1 (stereo not drawn) [drawing 19]
mortality at 0.004 % strength [5]: 100% | mortality at 0.02 % strength [5]: 100% | mortality at 0.1 % strength [5]: 100%

CCCSP(=S)(OCC)Oc1ccc(S(C)(=O)=O)cc1Cl (stereo not drawn) [drawing 20]
mortality at 0.0008 % strength [5]: 100% | mortality at 0.004 % strength [5]: 100% | mortality at 0.02 % strength [5]: 100% | mortality at 0.1 % strength [5]: 100%

CCCSP(=S)(OCC)Oc1ccc(Cl)cc1Cl (stereo not drawn) [drawing 21]
mortality at 0.0008 % strength [5]: 0% | mortality at 0.004 % strength [5]: 100% | mortality at 0.02 % strength [5]: 100% | mortality at 0.1 % strength [5]: 100%

CCCSP(=S)(OCC)Oc1ccc(S(C)(=O)=O)cc1Br (stereo not drawn) [drawing 22]
mortality at 0.0008 % strength [5]: 90% | mortality at 0.004 % strength [5]: 100% | mortality at 0.02 % strength [5]: 100% | mortality at 0.1 % strength [5]: 100%

CCCSP(=S)(OCC)Oc1ccc(Cl)cc1Cl (stereo not drawn) [drawing 23, reference compound]
mortality at 0.004 % strength [6]: 20% | mortality at 0.02 % strength [6]: 100% | mortality at 0.1 % strength [6]: 100%

CCOP(=S)(Oc1ccc(S(C)(=O)=O)cc1)SC (stereo not drawn) [drawing 24]
mortality at 0.004 % strength [6]: 15% | mortality at 0.02 % strength [6]: 100% | mortality at 0.1 % strength [6]: 100%

CCCSP(=S)(OCC)Oc1ccc(S(C)(=O)=O)cc1 (stereo not drawn) [drawing 25]
mortality at 0.004 % strength [6]: 100% | mortality at 0.02 % strength [6]: 100% | mortality at 0.1 % strength [6]: 100%

CCCSP(=S)(OCC)Oc1ccc(S(C)(=O)=O)cc1Br (stereo not drawn) [drawing 26]
mortality at 0.004 % strength [6]: 100% | mortality at 0.02 % strength [6]: 100% | mortality at 0.1 % strength [6]: 100%

CCOP(=S)(Oc1ccc(S(C)(=O)=O)cc1)SC (stereo not drawn) [drawing 27, reference compound]
mortality at 0.02 % strength [7]: 0% | mortality at 0.1 % strength [7]: 35%

CCCSP(=S)(OCC)Oc1ccc(S(C)(=O)=O)cc1 (stereo not drawn) [drawing 28]
mortality at 0.02 % strength [7]: 60% | mortality at 0.1 % strength [7]: 100%

CCCSP(=S)(OCC)Oc1ccc(S(C)(=O)=O)cc1Cl (stereo not drawn) [drawing 29]
mortality at 0.02 % strength [7]: 90% | mortality at 0.1 % strength [7]: 100%

CCCSP(=S)(OCC)Oc1ccc(S(=O)(=O)CCl)cc1 (stereo not drawn) [drawing 30]
mortality at 0.02 % strength [7]: 70% | mortality at 0.1 % strength [7]: 100%

CCCSP(=S)(OCC)Oc1ccc(S(=O)(=O)CCl)cc1Cl (stereo not drawn) [drawing 31]
mortality at 0.02 % strength [7]: 55% | mortality at 0.1 % strength [7]: 100%
